From US6569633B1, “Modulation of the sulfonylurea receptor and calcium in adipocytes for treatment of obesity/diabetes” (Artecel Science, Inc., priority 1998, dated 2003)

Experiments:
human adipocytes = assay: Intracellular Ca2+ ([Ca2+]i) by fura-2 fluorometry in isolated human adipocytes; format: cell-based
Method: FIG. 2. Glibenclamide stimulation of [Ca^2+]i in isolated human adipocyte. [Ca^2+]i in isolated human adipocytes was determined fluorometrically as previously described (4,7). Briefly, the human adipocytes isolated as described above were incubated in DMEM medium overnight for cell recovery. Prior to [Ca^2+]i measurement, adipocytes were pre-incubated in serum-free medium for 2 hrs, rinsed with HBSS solution containing the following components in mM: NaCl 138, CaCl2 1.8, MgSO4 0.8, NaH2PO4 0.9, NaHCO3 4, glucose 20, glutamine 6, HEPES 20 and BSA 1%. Cells were then loaded with fura-2 acetoxymethyl ester (10 μM) in the same buffer for 45 min at 37° C. in the dark with continuous shaking. To remove extracellular dye, cells were rinsed with HBSS for 3 times and resuspended in this solution at a concentration of 2×10^5 cells/ml. [Ca^2+]i was measured using dual excitation (340 and 380 nm) and single emission (510 nm) fluorometry. Following the establishment of stable baseline, the response to glibenclamide (10 and 20 μM) was determined. Digitonin (25 μM) and Tris/EGTA (100 mM) were used to measure maximal and minimal fluorescence to calibrate the signals, and final [Ca^2+]i was then calculated by the equation of Grynkiewicz et al. (17). […] Glibenclamide (Glib) was added at time designated by the arrow. B. The dose-responsive effect of glibenclamide on [Ca^2+]i in human adipocytes. Glibenclamide was added at 10 and 20 µM at the indicated times. *p<0.05 vs. Control, **p<0.05 vs. 10 μM glibenclamide.
The functionality of the SUR1 receptor was determined with respect to calcium mobilization and small molecule effects. [Ca^2+]i response was measured fluorometrically in isolated human adipocytes using a standard method (2,16). Briefly, isolated human adipocytes were incubated in DMEM or any other suitable medium such as Ham's F-10, Modified Eagle's media plus 5-10% fetal calf serum overnight for cell recovery. Prior to [Ca^2+]i measurement, adipocytes were pre-incubated in serum-free medium for 2 hrs, rinsed with HBSS solution containing the following components in mM: NaCl 138, CaCl2 1.8, MgSO4 0.8, NaH2PO4 0.9, NaHCO3 4, glucose 20, glutamine 6, HEPES 20 and BSA 1%. Cells were then loaded with fura-2 acetoxymethyl ester (10 μM) in the same buffer for 30-60 min at 37° C. in dark with continuous shaking. To remove extracellular dye, cells were rinsed with HBSS for three times and resuspended in this solution at a concentration of 1-10×10^5 cells/ml. [Ca^2+]i was measured using dual excitation (340 and 380 nm) and single emission (510 nm) fluorometry. Following the establishment of stable baseline, the response to a SUR agonist such as glibenclamide (1-20 μM) can be determined. Digitonin (25 μM) and Tris/EGTA (100 mM) were used to measure maximal and minimal fluorescence to calibrate the signals, and final [Ca^2+]i was then calculated by a known method such as described in Grynkiewicz et al (17).
Correlation of lipolysis with flux of intracellular calcium ([Ca^2+]i) concentration is then performed. [Ca^2+]i is measured in primary adipocytes. For primary adipocytes, 3 ml of cells are resuspended in 6 ml of HBSS and fura-2/AM was loaded for 80 min at 37° C. Extracellular fura-2/AM is washed three times with HBSS by centrifugation. [Ca^2+]i levels are then measured fluorometrically in suspensions using dual excitation (340 and 380 nm)/single emission (510 nm) fluorometry and [Ca^2+]i is calculated by the computer in the fluorometer. As a control, after loading fura-2/AM cells are pretreated with nitrendipine (RBI, Natick, Mass.) (30 μM, final concentration) for 10 min at 37° C.

[1] = tested on: GPDH activity in human adipocytes; assay: GPDH activity in human adipocytes; format: cell-based
Method: FIG. 3. The lipogenic effect of glibenclamide in human adipocytes. As an indicator of lipogenic stimulation, both FAS and GPDH activity were measured. A. Glibenclamide stimulation of FAS activity. Human adipocytes were treated with 10 μM glibenclamide alone, 10 μM glibenclamide plus 10 μM diazoxide or 10 μM glibenclamide plus 30 μM nitrendipine for 48 hr. FAS was measured as described (6, 14). *p<0.001 vs. Control. B. Glibenclamide stimulation of GPDH activity. Human adipocytes were treated with 10 μM glibenclamide or 10 μM glibenclamide plus 10 μM diazoxide for 48 hr. GPDH activity was measured as described (14). *p<0.01 vs. Control.
To study the role of adipocyte SUR1 in regulating lipogenesis, we treated human adipocyte with SUR1 agonist and antagonist using FAS and GPDH activities as lipogenic markers. Human adipocytes were incubated in 24-well plates with the treatments indicated for 48 hr. FAS and GPDH activities were determined spectrophotometrically in crude cytosolic extracts of human adipocytes by measuring the oxidation rate of NADPH or NADH respectively, as previously described (14). The protein correction was measured by a modified Bradford method using Coomassie Blue dye (Pierce, Rockford, Ill.).

rat adipocytes = conditions: read-out: KD of glibenclamide binding; cited from earlier work
[2] = tested on: FAS activity in human adipocytes; assay: Fatty acid synthase (FAS) activity in human adipocytes; format: cell-based; conditions: for fatty acid synthase activity: control 1.93±0.24

## COc1ccc(Cl)cc1C(=O)NCCc1ccc(S(=O)(=O)NC(=O)NC2CCCCC2)cc1 [glibenclamide]
Human adipocytes; 20 µM glibenclamide (FIG. 2A)
  [Ca2+]i response: increase in intracellular calcium
Human adipocytes; 1-20 μM, dose-dependent manner
  [Ca2+]i response: sustained increases
Human adipocytes; Adipocyte, human adipocytes, read-out: EC50 for increase in intracellular free calcium
  EC50: ~1000 nM
Human adipocytes; graded doses, over a baseline of 190 nM
  maximum response of intracellular free calcium: 388 ± 72 nM
[1]; 10 μM glibenclamide, 48 hr
  increase in GPDH activity: 48%
[1]; 10 μM glibenclamide, 48 hr, control 554.0±33.0
  GPDH activity: 821.0±73.4 NADH nM/min/mg protein
[1]; SUR agonists such as glibenclamide, general description
  increased GPDH activity: 50-100%
Rat adipocytes
  Kd: 1000 to 3000 nM
[2]; 2 μM glibenclamide
  fatty acid synthase activity: 7.90±0.4 nmol/min/mg protein
[2]; 10 μM glibenclamide, 48 hr
  increase in adipocyte FAS activity: 67%
[2]; 10 μM glibenclamide, 48 hr, control 0.692±0.052
  FAS activity: 1.154±0.010 NADPH nM/min/mg protein
[2]; 10 μM glibenclamide
  fatty acid synthase activity: 12.8 ± 0.6 nmol/min/mg
[2]; SUR agonist such as glibenclamide, general description
  increased FAS activity from basal levels: 50%-500%
